Measurements from US20220167645A1, “METHODS OF IMPROVING FISH FEED CONVERSION RATE AND SURVIVAL” (AQUINOVO LTD., priority 2019, published 2022).
Numbered stars: 1 amine (or outer) side, 2 acyl side, 3 side chain; on linkers, the order of the positions; unused ones are H or OH. Square brackets hold non-standard residues; d marks the D form. Suc = O=C(CCC(=O)[*:2])[*:1]; NMeV = CN[C@H](C(=O)O)C(C)C; βAla = NCCC(=O)O

Test system: Tilapia fish
Assay: Experiment #3: tilapia fed AN6-coated feed, treatment schedules 1 to 8 (survival, weight, length, size distribution, FCR)
Format: in vivo
Details: for increase in average fish weight: D279, compared to control; for % big fish (Big fish 279 dph >1000 g) / % small fish (Small fish 279 dph >476 g) / Δ Treatment - Control (%) big fish (>1000 g) / Δ Treatment - Control (%) small fish (>476 g) / Big fish # (Big fish 279 dph >1000 g) / Small fish # (Small fish 279 dph): 279 dph; for Average FCR/cage / Average density (body/cage) / Average weight gain/fish (g) / Average weight/fish (g) / Total weight/cage (g): D 236 to D 279, % change relative to control
Procedure: The following fish feed was used in this experiment: MeM (powder, manufactured by Bern Aqua), Nanolis P1, P2 (pellet sizes of 1 mm, 1.2-1.5 mm, respectively, manufactured by Ocialis) and Tilaphi 2, 3 & 4 (pellet sizes of 2 mm, 3-4 mm & 5.5 mm manufactured by Ocialis). The feed content is in described in Table 4.
Feed was coated using the following general procedure: Different amounts of the peptide AN6 (SEQ ID NO: 6) were prepared by dissolving the peptide in Tris-HCl solution (50 mM, pH=8.8) in ratio of 15 mg peptide to 1.25 ml Tris-HCl solution. Then, each of the various solutions was mixed with 3 Kg of the basic feed pellets (depending on fish size) using an electric mixer. The peptide-feed mixtures where then dried either in oven at 40° C. for 24 hours or in drying drum (at room temperature) for few hours to form coated pellets.
Tilapia fish (n=4800) were raised from day 10 (0.05 g) post-hatch (dph) in indoor tanks and then transferred to outdoor cages in ponds (40-279 dph). Each cage/tank is an experimental unit. The fish were fed to apparent satiation 2-4 times a day with feed appropriate to their age and treatment as described in Table 5.
The trial included total 48 cages representing 8 treatments, with 6 repeats each. Each cage contained about 100 fish. […] Fed to fish throughout the entire growth-trial period (for 279 days); • Treatment 2 (5 ppm from 10 dph for 120 days): The control diet with the addition of 5 mg peptide/kg of diet (Feed F). Fish were fed the peptide enriched diet for 120 days (4 months), from 10 days of age (D0—the first day of the experiment) to 130 days of age (D120), and the control diet during the last 6 months (159 days) (Feed E); • Treatment 3 (10 ppm from 10 dph for 60 days): The control diet with the addition of 10 mg peptide/kg of diet (Feed G). […] Fish were fed the peptide enriched diet for 90 days (3 months) from 10 days of age (D0) to 100 days of age (D90) and the control diet for the last 7 months (189 days) (Feed E); • Treatment 5 (10 ppm from 10 dph for 120 days): The control diet with the addition of 10 mg peptide/kg of diet (Feed G). Fish were fed the peptide enriched diet for 120 days (4 months) from 10 days of age (D0) to 130 days of age (D120) and the control diet for the last 6 months (159 days) (Feed E); • Treatment 6 (10 ppm from 100 dph for 30 days): The control diet with the addition of 10 mg peptide/kg of diet (Feed G). Fish were fed the peptide enriched diet for 30 days (1 month) from 100 days of age (D90) to 130 days of age (D120) and the control diet for the first three months (90 days from D0 to D90) and the last 6 months (159 days) (Feed E); • Treatment 7 (30 ppm from 10 dph for 60 days): The control diet with the addition of 30 mg peptide/kg of diet (Feed H). Fish were fed the peptide enriched diet for 60 days (2 months) from 10 days of age (D0) to 70 days of age (D60), and the control diet during the last 8 months (219 days) (Feed E); • Treatment 8 (30 ppm from 10 dph for 90 days): The control diet with the addition of 30 mg peptide/kg of diet (Feed H). Fish were fed the peptide enriched diet for 90 days (3 months) from 10 days of age (D0) to 100 days of age (D90) and the control diet for the last 7 months (189 days) (Feed E).
During the experimental period, fish weight and length were measured once a month. Individual fish sex was determined at days 96 and 279 of the experiment. Average fish weight per cage were calculated for each measurement period (FIG. 8). […] Between two weight measurements, average weight gain (FIG. 9A) and daily growth rates (FIG. 9B) were calculated by subtracting the average weight at the beginning and end of the measuring period and dividing by the number of days between.
In order to determine the efficiency of feed conversion into fish substance in experiments (#1, #2, #3), FCR values which reflect the amount of feed needed to grow a kilogram fish, were calculated for each period and for the entire fish growth period. […]

[1] = AN6 for 60 days, 10 mg/Kg feed (Treatment 3)
[2] = AN6 for 90 days, 30 mg/Kg feed (Treatment 8)
[3] = AN6 treated groups (Treatments 2, 3, or 8)
[4] = Treatment 2 (5 ppm from 10 dph for 120 days)
[5] = Treatment 2 (5 ppm from 10 dph for 120 days), of 451 fish
[6] = Treatment 2 (5 ppm from 10 dph for 120 days), female fish, D 96
[7] = Treatment 2 (5 ppm from 10 dph for 120 days), female fish, D 279
[8] = Treatment 2 (5 ppm from 10 dph for 120 days), male fish, D 96
[9] = Treatment 2 (5 ppm from 10 dph for 120 days), male fish, D 279
[10] = Treatment 3 (10 ppm from 10 dph for 60 days)
[11] = Treatment 3 (10 ppm from 10 dph for 60 days), of 480 fish
[12] = Treatment 3 (10 ppm from 10 dph for 60 days), female fish, D 96
[13] = Treatment 3 (10 ppm from 10 dph for 60 days), female fish, D 279
[14] = Treatment 3 (10 ppm from 10 dph for 60 days), male fish, D 96
[15] = Treatment 3 (10 ppm from 10 dph for 60 days), male fish, D 279
[16] = Treatment 4 (10 ppm from 10 dph for 90 days)
[17] = Treatment 4 (10 ppm from 10 dph for 90 days), of 463 fish
[18] = Treatment 4 (10 ppm from 10 dph for 90 days), female fish, D 96
[19] = Treatment 4 (10 ppm from 10 dph for 90 days), female fish, D 279
[20] = Treatment 4 (10 ppm from 10 dph for 90 days), male fish, D 96
[21] = Treatment 4 (10 ppm from 10 dph for 90 days), male fish, D 279
[22] = Treatment 5 (10 ppm from 10 dph for 120 days)
[23] = Treatment 5 (10 ppm from 10 dph for 120 days), of 441 fish

Substance: Succ-Asp-Ser- D-Trp -N(Me)Val-βAla-Leu-Met-NH2 (Suc-DS[dW][NMeV][βAla]LM-NH2; SMILES CSCC[C@H](NC(=O)[C@H](CC(C)C)NC(=O)CCNC(=O)[C@H](C(C)C)N(C)C(=O)[C@@H](Cc1c[nH]c2ccccc12)NC(=O)[C@H](CO)NC(=O)[C@H](CC(=O)O)NC(=O)CCC(=O)O)C(N)=O) [AN6]
- increase in average fish weight (5 mg AN6/Kg for 120 days (Treatment 2)): +7.11%
- increase in average fish weight (10 mg AN6/Kg feed from 10 dph for 120 days (Treatment 5)): +6.41%
- increased daily growth rate, on average compared to the control (5 ppm and 10 ppm AN6 for sufficient time (>90 days), throughout the experimental period): 5.8%
- FCR [1]: improved FCR significantly
- growth [1]: did not affect growth
- FCR [2]: improved FCR significantly
- growth [2]: did not affect growth
- proportion of large fish (>1000 g) [3]: higher proportion
- proportion of small fish (<476 g) [3]: lower proportion
- % big fish (Big fish 279 dph >1000 g) [4]: 16.6%
- % small fish (Small fish 279 dph >476 g) [4]: 4.7%
- Δ Treatment - Control (%) big fish (>1000 g) [4]: 6.4%
- Δ Treatment - Control (%) small fish (>476 g) [4]: −4.5%
- Big fish # (Big fish 279 dph >1000 g) [5]: 75
- Small fish # (Small fish 279 dph) [5]: 21
- Average FCR/cage [4]: −2.14%
- Average density (body/cage) [4]: 0.45%
- Average weight gain/fish (g) [4]: 6.18%
- Average weight/fish (g) [4]: 6.41%
- Total weight/cage (g) [4]: 6.71%
- Length/fish (cm) Mean [6]: 15.85 cm
- Weight/fish (g) Mean [6]: 87.35 g
- Δ Mean % (Treatment vs. control) Length/fish [6]: 0.38%
- Δ Mean % (Treatment vs. control) Weight/fish [6]: 6.24%
- Length/fish (cm) Mean [7]: 30.76 cm
- Weight/fish (g) Mean [7]: 651.83 g
- Δ Mean % (Treatment vs. control) Length/fish [7]: 2.09%
- Δ Mean % (Treatment vs. control) Weight/fish [7]: 8.30%
- Length/fish (cm) Mean [8]: 17.22 cm
- Weight/fish (g) Mean [8]: 111.8 g
- Δ Mean % (Treatment vs. control) Length/fish [8]: 0.00%
- Δ Mean % (Treatment vs. control) Weight/fish [8]: 5.97%
- Length/fish (cm) Mean [9]: 34.37 cm
- Weight/fish (g) Mean [9]: 916.05 g
- Δ Mean % (Treatment vs. control) Length/fish [9]: −0.03%
- Δ Mean % (Treatment vs. control) Weight/fish [9]: 5.86%
- % big fish (Big fish 279 dph >1000 g) [10]: 16.5%
- % small fish (Small fish 279 dph >476 g) [10]: 4.8%
- Δ Treatment - Control (%) big fish (>1000 g) [10]: 6.2%
- Δ Treatment - Control (%) small fish (>476 g) [10]: −4.3%
- Big fish # (Big fish 279 dph >1000 g) [11]: 79
- Small fish # (Small fish 279 dph) [11]: 23
- Average FCR/cage [10]: −4.28%
- Average density (body/cage) [10]: 6.91%
- Average weight gain/fish (g) [10]: 9.19%
- Average weight/fish (g) [10]: 3.44%
- Total weight/cage (g) [10]: 10.27%
- Length/fish (cm) Mean [12]: 16.03 cm
- Weight/fish (g) Mean [12]: 87.67 g
- Δ Mean % (Treatment vs. control) Length/fish [12]: 1.52%
- Δ Mean % (Treatment vs. control) Weight/fish [12]: 6.63%
- Length/fish (cm) Mean [13]: 30.5 cm
- Weight/fish (g) Mean [13]: 629.02 g
- Δ Mean % (Treatment vs. control) Length/fish [13]: 1.23%
- Δ Mean % (Treatment vs. control) Weight/fish [13]: 4.51%
- Length/fish (cm) Mean [14]: 17.19 cm
- Weight/fish (g) Mean [14]: 106.51 g
- Δ Mean % (Treatment vs. control) Length/fish [14]: −0.17%
- Δ Mean % (Treatment vs. control) Weight/fish [14]: 0.96%
- Length/fish (cm) Mean [15]: 34.14 cm
- Weight/fish (g) Mean [15]: 877.38 g
- Δ Mean % (Treatment vs. control) Length/fish [15]: −0.70%
- Δ Mean % (Treatment vs. control) Weight/fish [15]: 1.39%
- % big fish (Big fish 279 dph >1000 g) [16]: 14.7%
- % small fish (Small fish 279 dph >476 g) [16]: 4.8%
- Δ Treatment - Control (%) big fish (>1000 g) [16]: 4.4%
- Δ Treatment - Control (%) small fish (>476 g) [16]: −4.4%
- Big fish # (Big fish 279 dph >1000 g) [17]: 68
- Small fish # (Small fish 279 dph) [17]: 22
- Average FCR/cage [16]: −2.14%
- Average density (body/cage) [16]: 3.34%
- Average weight gain/fish (g) [16]: 1.69%
- Average weight/fish (g) [16]: 3.89%
- Total weight/cage (g) [16]: 7.37%
- Length/fish (cm) Mean [18]: 15.96 cm
- Weight/fish (g) Mean [18]: 86.4 g
- Δ Mean % (Treatment vs. control) Length/fish [18]: 1.08%
- Δ Mean % (Treatment vs. control) Weight/fish [18]: 5.08%
- Length/fish (cm) Mean [19]: 30.48 cm
- Weight/fish (g) Mean [19]: 631.17 g
- Δ Mean % (Treatment vs. control) Length/fish [19]: 1.16%
- Δ Mean % (Treatment vs. control) Weight/fish [19]: 4.86%
- Length/fish (cm) Mean [20]: 17.26 cm
- Weight/fish (g) Mean [20]: 111.87 g
- Δ Mean % (Treatment vs. control) Length/fish [20]: 0.23%
- Δ Mean % (Treatment vs. control) Weight/fish [20]: 6.04%
- Length/fish (cm) Mean [21]: 34.15 cm
- Weight/fish (g) Mean [21]: 881.92 g
- Δ Mean % (Treatment vs. control) Length/fish [21]: −0.67%
- Δ Mean % (Treatment vs. control) Weight/fish [21]: 1.92%
- % big fish (Big fish 279 dph >1000 g) [22]: 12.0%
- % small fish (Small fish 279 dph >476 g) [22]: 8.6%
- Δ Treatment - Control (%) big fish (>1000 g) [22]: 1.8%
- Δ Treatment - Control (%) small fish (>476 g) [22]: −0.5%
- Big fish # (Big fish 279 dph >1000 g) [23]: 53
- Small fish # (Small fish 279 dph) [23]: 38
- Average FCR/cage [22]: −0.53%
- Average density (body/cage) [22]: −1.78%
- Average weight gain/fish (g) [22]: 7.59%
